The experiment deals with T1, DLK (Homo sapiens, UniProt Q12852).
T1 construct: N-terminally GST-tagged DLK (catalytic domain amino acid 1-520) (Carna Bioscience); GST (N); purchased Carna Bioscience
T1 sequence (Q12852 1-520): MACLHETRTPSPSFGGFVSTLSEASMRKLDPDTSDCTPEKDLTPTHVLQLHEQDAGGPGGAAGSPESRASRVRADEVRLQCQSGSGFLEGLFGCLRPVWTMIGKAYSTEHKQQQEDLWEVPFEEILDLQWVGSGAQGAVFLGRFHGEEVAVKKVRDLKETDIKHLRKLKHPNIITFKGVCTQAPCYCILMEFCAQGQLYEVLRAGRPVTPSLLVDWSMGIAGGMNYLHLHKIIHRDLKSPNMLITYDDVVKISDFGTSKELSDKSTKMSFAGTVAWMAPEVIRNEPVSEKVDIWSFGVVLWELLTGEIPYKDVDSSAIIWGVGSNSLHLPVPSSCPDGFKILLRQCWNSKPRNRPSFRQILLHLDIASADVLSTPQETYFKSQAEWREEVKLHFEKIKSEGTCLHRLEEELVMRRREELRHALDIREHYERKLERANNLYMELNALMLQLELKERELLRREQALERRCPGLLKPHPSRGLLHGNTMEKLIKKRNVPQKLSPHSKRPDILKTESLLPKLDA
Kind of experiment: DLK TR-FRET assay. The format is biochemical. To be noted: 5 nM GST-tagged DLK (catalytic domain amino acid 1-520), 40 nM HIS-tagged MKK4 K131M substrate, 30 μM ATP, 60 minutes. In outline:
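5 nM GST-tagged DLK catalytic domain (aa 1-520) with 40 nM HIS-MKK4 K131M substrate and 30 μM ATP in HEPES pH 7.5/MgCl2 buffer. Compounds tested in 1:3 serial dilution from 20 uM, 60 min at ambient temperature. EDTA quench, then 3 h with Eu-anti-phospho-MKK4 and D2-anti-HIS before TR-FRET read (665/615 nm).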
For orientation: In TR-FRET formats the signal depends on donor and acceptor labels being close together.

This is an account of results in patent US9399636B2, “Substituted dipyridylamines and uses thereof” (Genentech, Inc., priority 2012, dated 2016).

pKi: −log10 of the molar value.

As a reminder, the pKi is the Ki on a negative log10 scale, so that one unit is a factor of ten. A high value points to a small Ki. `Cc1cc(C2=CCOCC2)cc(Nc2cc(C#N)ccn2)n1` [Example 112, 2-[4-(3,6-Dihydro-2H-pyran-4-yl)-6-methyl-pyridin-2-ylamino]-isonicotinonitrile] gave a negative logarithm of the Ki (pKi) of 6.66.

`Cc1cc(C2CCOCC2)cc(Nc2cc(CN)ccn2)n1` [Example 113, (4-Aminomethyl-pyridin-2-yl)-[6-methyl-4-(tetrahydro-pyran-4-yl)-pyridin-2-yl]-amine] had a negative logarithm of the Ki (pKi) of 5.80.

As to `CC1CCCN1c1cc(C2CCN(CC3CCOCC3)C2)cc(Nc2cc(C#N)ccn2)n1` (stereo not shown) [Example 115, 2-{6-(2-Methyl-pyrrolidin-1-yl)-4-[1-(tetrahydro-pyran-4-ylmethyl)-pyrrolidin-3-yl]-pyridin-2-ylamino}-isonicotinonitrile], the pKi was 10.05.

On to `Cc1cc(C2CCN(C(=O)OC(C)(C)C)CC2)cc(Nc2cc(C#N)ccn2)n1` [Example 116, 2′-(4-Cyano-pyridin-2-ylamino)-6′-methyl-3,4,5,6-tetrahydro-2H-[4,4′]bipyridinyl-1-carboxylic acid tert-butyl ester], for which the negative logarithm of the Ki (pKi) was 6.67.

`FC1(F)CCN(c2cc(C3CN(C4COC4)C3)cc(Nc3cc(C(F)(F)F)ccn3)n2)C1` [Example 117, [6-(3,3-Difluoro-pyrrolidin-1-yl)-4-(1-oxetan-3-yl-azetidin-3-yl)-pyridin-2-yl]-(4-trifluoromethyl-pyridin-2-yl)-amine] showed a negative logarithm of the Ki (pKi) of 9.03.

In the case of `Cn1cc(-c2cc(C3CCOCC3)cc(Nc3cc(OC(F)F)ccn3)n2)cn1` [Example 118, (4-Difluoromethoxy-pyridin-2-yl)-[6-(1-methyl-1H-pyrazol-4-yl)-4-(tetrahydro-pyran-4-yl)-pyridin-2-yl]-amine], the pKi was 8.40.

Take `CC(=O)N1CCC(c2cc(Nc3cc(C#N)ccn3)nc(N3CCC[C@H]3C)c2)CC1` [Example 119, 2-[1′-Acetyl-6-((R)-2-methyl-pyrrolidin-1-yl)-1′,2′,3′,4′,5′,6′-hexahydro-[4,4′]bipyridinyl-2-ylamino]-isonicotinonitrile]: the negative logarithm of the Ki (pKi) was 9.70.

In turn, `FC(F)(F)c1ccnc(Nc2cc(C3CCN(C4COC4)CC3)ccn2)c1` [Example 120, (1′-Oxetan-3-yl-1′,2′,3′,4′,5′,6′-hexahydro-[4,4′]bipyridinyl-2-yl)-(4-trifluoromethyl-pyridin-2-yl)-amine] gave a pKi of 6.77.

Turning to `C[C@@H]1CCCN1c1cc(C2CCN(C3COC3)CC2)cc(Nc2cc(C#N)ccn2)n1` [Example 121, 2-[6-((R)-2-Methyl-pyrrolidin-1-yl)-1′-oxetan-3-yl-1′,2′,3′,4′,5′,6′-hexahydro-[4,4′]bipyridinyl-2-ylamino]-isonicotinonitrile], the pKi is 9.70.

With `Cn1cc(-c2cc(C3CCOCC3)cc(Nc3cc(C(F)(F)F)ccn3)n2)cn1` [Example 122, [6-(1-Methyl-1H-pyrazol-4-yl)-4-(tetrahydro-pyran-4-yl)-pyridin-2-yl]-(4-trifluoromethyl-pyridin-2-yl)-amine], the pKi was 9.40.

For the molecule `C[C@@H]1CCCN1c1cc(C2CCOCC2)cc(Nc2cc(C#N)ccn2)n1` [Example 123, 2-[6-((R)-2-Methyl-pyrrolidin-1-yl)-4-(tetrahydro-pyran-4-yl)-pyridin-2-ylamino]-isonicotinonitrile], the pKi is 9.70.

`N#Cc1ccnc(Nc2cc(C3CCN(C4COC4)CC3)ccn2)c1` [Example 124, 2-(1′-Oxetan-3-yl-1′,2′,3′,4′,5′,6′-hexahydro-[4,4′]bipyridinyl-2-ylamino)-isonicotinonitrile]: the negative-log Ki (pKi) is 6.15.

`C[C@@H]1CCCN1c1cc(C2CCOCC2)cc(Nc2cc(C(F)(F)F)ccn2)n1` [Example 125, [6-((R)-2-Methyl-pyrrolidin-1-yl)-4-(tetrahydro-pyran-4-yl)-pyridin-2-yl]-(4-trifluoromethyl-pyridin-2-yl)-amine] gave a pKi of 8.51.

As to `CS(=O)(=O)N1CC(c2cc(Nc3cc(C(F)(F)F)ccn3)nc(N3CCC(F)(F)C3)c2)C1` [Example 126, [6-(3,3-Difluoro-pyrrolidin-1-yl)-4-(1-methanesulfonyl-azetidin-3-yl)-pyridin-2-yl]-(4-trifluoromethyl-pyridin-2-yl)-amine], the pKi was 8.18.

For the molecule `CC(=O)N1CC(c2cc(Nc3cc(C(F)(F)F)ccn3)nc(N3CCC(F)(F)C3)c2)C1` [Example 127, 1-{3-[2-(3,3-Difluoro-pyrrolidin-1-yl)-6-(4-trifluoromethyl-pyridin-2-ylamino)-pyridin-4-yl]-azetidin-1-yl}-ethanone], the pKi was 8.54.

`CS(=O)(=O)N1CCC(c2ccnc(Nc3cc(C#N)ccn3)c2)CC1` [Example 128, 2-(1′-Methanesulfonyl-1′,2′,3′,4′,5′,6′-hexahydro-[4,4′]bipyridinyl-2-ylamino)-isonicotinonitrile]: the negative logarithm of the Ki (pKi) is 6.35.

In the case of `CC(=O)N1CCC(c2ccnc(Nc3cc(C#N)ccn3)c2)CC1` [Example 129, 2-(1′-Acetyl-1′,2′,3′,4′,5′,6′-hexahydro-[4,4′]bipyridinyl-2-ylamino)-isonicotinonitrile], the negative-log Ki (pKi) is 6.29.

Turning to `N#Cc1ccnc(Nc2cc(C3CCOCC3)cc(N3CCC(F)(F)C3)n2)c1` [Example 130, 2-[6-(3,3-Difluoro-pyrrolidin-1-yl)-4-(tetrahydro-pyran-4-yl)-pyridin-2-ylamino]-isonicotinonitrile], the negative logarithm of the Ki (pKi) is 9.06.

As for `CC1CCCN1c1cc(C2CCN(S(C)(=O)=O)C2)cc(Nc2cc(C(F)(F)F)ccn2)n1` (stereo not shown) [Example 132, [4-(1-Methanesulfonyl-pyrrolidin-3-yl)-6-(2-methyl-pyrrolidin-1-yl)-pyridin-2-yl]-(4-trifluoromethyl-pyridin-2-yl)-amine], the negative-log Ki (pKi) is 8.67.

The molecule `CC1CCCN1c1cc(C2CCN(C(=O)c3cn(C)cn3)C2)cc(Nc2cc(C(F)(F)F)ccn2)n1` (stereo not shown) [Example 133, (1-Methyl-1H-imidazol-4-yl)-{3-[2-(2-methyl-pyrrolidin-1-yl)-6-(4-trifluoromethyl-pyridin-2-ylamino)-pyridin-4-yl]-pyrrolidin-1-yl}-methanone] gave a pKi of 9.18.

Regarding `CC(=O)N1CCC(c2cc(Nc3cc(C)ccn3)nc(-c3cnn(C)c3)c2)CC1` [Example 134, 1-[2′-(1-Methyl-1H-pyrazol-4-yl)-6′-(4-methyl-pyridin-2-ylamino)-3,4,5,6-tetrahydro-2H-[4,4′]bipyridinyl-1-yl]-ethanone], the pKi was 7.52.

`Cc1ccnc(Nc2cc(C3CCN(C4COC4)CC3)cc(N3CCC[C@H]3C)n2)c1` [Example 135, (4-Methyl-pyridin-2-yl)-[6-((R)-2-methyl-pyrrolidin-1-yl)-1′-oxetan-3-yl-1′,2′,3′,4′,5′,6′-hexahydro-[4,4′]bipyridinyl-2-yl]-amine]: the pKi was 7.68.

`Cc1ccnc(Nc2cc(C3CCN(S(C)(=O)=O)CC3)cc(N3CCC[C@H]3C)n2)c1` [Example 136, [1′-Methanesulfonyl-6-((R)-2-methyl-pyrrolidin-1-yl)-1′,2′,3′,4′,5′,6′-hexahydro-[4,4′]bipyridinyl-2-yl]-(4-methyl-pyridin-2-yl)-amine] showed a negative logarithm of the Ki (pKi) of 7.60.

Molecule `C[C@@H]1CCCN1c1cc(C2CCN(CCF)CC2)cc(Nc2cc(C(F)(F)F)ccn2)n1` [Example 137, [1′-(2-Fluoro-ethyl)-6-((R)-2-methyl-pyrrolidin-1-yl)-1′,2′,3′,4′,5′,6′-hexahydro-[4,4′]bipyridinyl-2-yl]-(4-trifluoromethyl-pyridin-2-yl)-amine] had a pKi of 9.77.

In turn, `CN1CCCC(c2cc(Nc3cc(C(F)(F)F)ccn3)nc(N3CCC(F)(F)C3)c2)C1` (stereo not shown) [Example 138, [6′-(3,3-Difluoro-pyrrolidin-1-yl)-1-methyl-1,2,3,4,5,6-hexahydro-[3,4′]bipyridinyl-2′-yl]-(4-trifluoromethyl-pyridin-2-yl)-amine] had a negative-log Ki (pKi) of 9.77.

Molecule `C[C@@H]1CCCN1c1cc(C2CCN(S(C)(=O)=O)CC2)cc(Nc2cc(C(F)(F)F)ccn2)n1` [Example 139, [1′-Methanesulfonyl-6-((R)-2-methyl-pyrrolidin-1-yl)-1′,2′,3′,4′,5′,6′-hexahydro-[4,4′]bipyridinyl-2-yl]-(4-trifluoromethyl-pyridin-2-yl)-amine] showed a negative logarithm of the Ki (pKi) of 8.18.

Regarding `C[C@@H]1CCCN1c1cc(C2CCN(CCO)CC2)cc(Nc2cc(C(F)(F)F)ccn2)n1` [Example 140, 2-[6′-((R)-2-Methyl-pyrrolidin-1-yl)-2′-(4-trifluoromethyl-pyridin-2-ylamino)-3,4,5,6-tetrahydro-2H-[4,4′]bipyridinyl-1-yl]-ethanol], the pKi was 9.77.

Turning to `CC(=O)N1CCC(c2cc(Nc3cc(C(F)(F)F)ccn3)nc(N3CCC[C@H]3C)c2)CC1` [Example 141, 1-[2′-((R)-2-Methyl-pyrrolidin-1-yl)-6′-(4-trifluoromethyl-pyridin-2-ylamino)-3,4,5,6-tetrahydro-2H-[4,4′]bipyridinyl-1-yl]-ethanone], the pKi was 8.70.
